# Experimental data taken from article PMC9921329, “Semisynthetic Sesquiterpene Lactones Generated by the Sensibility of Glaucolide B to Lewis and Brønsted–Lowry Acids and Bases: Cytotoxicity and Anti-Inflammatory Activities” (Molecules, 2023).
# Columns and labels:
# [1] = test system: SK-MEL-28 (human melanoma cell line); assay: MTT cell viability / cytotoxicity, human melanoma cells; type: cell-based; conditions: for Viability (%) SK-MEL-28 / CC50: MTT; for Viability (%) SK-MEL-28: 24 h incubation, mean ± SD (n = 3), test concentration not given; for CC50: 24 h, half-maximal cytotoxic concentration; for SI (selectivity index) SK-MEL-28: ratio of CC50 of non-tumoral HUVEC cells to CC50 of SK-MEL-28
# Experimental: (§1) To evaluate the potential antitumoral activity of the compounds, the MTT [3-(4,5-dimethyl-2-thiazolyl)-2,5-diphenyl-2H-tetrazolium bromide] method was used to determine the cell viability of SK-MEL-28 (human melanoma cell line), NCI-H460 (human lung carcinoma cell line), SF295 (human glioblastoma cell line), and HUVEC (human umbilical vein endothelial cells) line. Cell viability analysis of murine macrophage J774A.1 was conducted using a resazurin-based cytotoxicity assay (Alamar blue®). All cell lines were acquired from the BCRJ (Rio de Janeiro Cell Bank, Federal University of Rio de Janeiro, Brazil). The cell lines were cultivated in RPMI-1640 or DMEM medium, supplemented with 1.5 g/L of sodium bicarbonate, 10 mM of HEPES, pH 7.4, 100 U/mL of penicillin G, 100 μg/mL of streptomycin, and 10% fetal calf serum at 37 °C in a humidified atmosphere consisting of 95% air and 5% CO2 cultures, and greater than 95% of viable cells in trypan blue exclusion tests were used for the experiments. Therefore, cells were seeded (1 × 10^4/well) in 96-well plates and incubated with increasing concentrations of the compounds for 24 h. After incubation, the former culture medium was replaced with a fresh culture medium with 5 mg/mL of MTT and with 0.1 mg/mL of resazurin for 2 h at 37 °C. MTT formazan crystals were dissolved in DMSO, and the absorbance of each well was measured at 540 nm, using a micro-well system reader. For the control group of each cell line, cells were incubated without the compounds and considered to have 100% cell viability. MTT formazan crystals were dissolved in DMSO, and absorbance was measured at 540 nm using a microplate reader (ELX800, Biotek, Winooski, VT, USA). The half-maximal cytotoxic concentration (CC50) values were calculated from a Hill concentration–response curve. Results were expressed as the mean ± SD of three experiments. The selectivity index (SI) was calculated via the ratio between the CC50 of non-tumoral cells and the tumoral cell lines. […] For the resazurin assay, fluorescence was measured at 1 h intervals using a plate multi-reader (Infinite Multireader m200 Tecan) at 530–590 nm. Nonlinear regression of each fraction versus percentage cell viability was performed to obtain a 10% toxicity concentration (a concentration causing 90% cell viability) using GraphPad Prism 8.0 software (GraphPad Software, San Diego, CA, USA).
# [2] = test system: NCI-H460 (human lung carcinoma cell line); assay: MTT cell viability, human lung carcinoma cells; type: cell-based; conditions: 24 h incubation, mean ± SD (n = 3), test concentration not given
# Experimental: as §1
# [3] = test system: SF295 (human glioblastoma cell line); assay: MTT cell viability, human glioblastoma cells; type: cell-based; conditions: 24 h incubation, mean ± SD (n = 3), test concentration not given
# Experimental: as §1
# [4] = test system: LPS-stimulated M1 macrophages J774A.1 (NOx); assay: Total nitrite nitrate (NOx) release from LPS-stimulated macrophages (Griess); type: cell-based, murine
# Experimental: (§2) The in vitro anti-inflammatory activity was performed in murine macrophage J774A.1 and analyzed after modifications to the protocol previously described by […] and coworkers. The evaluation consisted of measuring the production of nitrite through an indicator of NO synthesis in supernatants from LPS-activated macrophages. A number of 1 × 10^5 cells/well were seeded in 96-well plates for 24 h, after which time the culture medium was changed, and the CC10 concentration (Figure S70, found in the Supplementary Materials) of each compound was added to the medium containing DMEM supplemented with 10% FBS. After 15 min, macrophages were stimulated with 10 μg/mL of LPS and incubated for 24 h to obtain a proinflammatory M1-phenotype. Subsequently, supernatants were collected and total nitrite nitrate (NOx) was measured by adding 100 μL of Griess' reagent (1% sulfanilamide and 0.1% N-(1-naphthyl) ethylenediamine in 0.5% phosphoric acid). Absorbance was determined with a microplate reader (ELX800, BioTek, Winooski, VT, USA) at 540 nm. In addition, the proinflammatory cytokine IL-6 was determined using an enzyme-linked immunosorbent assay (ELISA) (BD Bioscience, San Jose, CA, USA) according to the manufacturer's instructions.
# [5] = test system: LPS-stimulated M1 macrophages J774A.1 (IL-6); assay: Interleukin-6 release from LPS-stimulated macrophages (ELISA); type: cell-based, murine
# Experimental: as §2
# [6] = test system: murine macrophage J774A.1; assay: Resazurin-based cytotoxicity assay (Alamar blue) in macrophages; type: cell-based; conditions: J774A.1, Figure S70
# Experimental: To evaluate the potential antitumoral activity of the compounds, the MTT [3-(4,5-dimethyl-2-thiazolyl)-2,5-diphenyl-2H-tetrazolium bromide] method was used to determine the cell viability of SK-MEL-28 (human melanoma cell line), NCI-H460 (human lung carcinoma cell line), SF295 (human glioblastoma cell line), and HUVEC (human umbilical vein endothelial cells) line. Cell viability analysis of murine macrophage J774A.1 was conducted using a resazurin-based cytotoxicity assay (Alamar blue®). All cell lines were acquired from the BCRJ (Rio de Janeiro Cell Bank, Federal University of Rio de Janeiro, Brazil). […] MTT formazan crystals were dissolved in DMSO, and the absorbance of each well was measured at 540 nm, using a micro-well system reader. […] MTT formazan crystals were dissolved in DMSO, and absorbance was measured at 540 nm using a microplate reader (ELX800, Biotek, Winooski, VT, USA). The half-maximal cytotoxic concentration (CC50) values were calculated from a Hill concentration–response curve. Results were expressed as the mean ± SD of three experiments. The selectivity index (SI) was calculated via the ratio between the CC50 of non-tumoral cells and the tumoral cell lines. […] For the resazurin assay, fluorescence was measured at 1 h intervals using a plate multi-reader (Infinite Multireader m200 Tecan) at 530–590 nm. […]
# [7] = MTT cytotoxicity, non-tumoral endothelial cells; type: cell-based, human; conditions: human, HUVEC cells (non-tumoral), pH 7.4
# Experimental: as §1
# [8] = test system: HUVEC (human umbilical vein endothelial cells); assay: MTT cytotoxicity, non-tumoral endothelial cells; type: cell-based; conditions: 24 h
# Experimental: as §1
# [9] = compound at CC10, pre-treatment 15 min, LPS 10 μg/mL, 24 h
Compound,Viability (%) SK-MEL-28 [1],Viability (%) NCI-H460 [2],Viability (%) SF295 [3],"Anti-inflammatory activity, NOx release (in words) ([4]; compound at CC10, LPS 10 μg/mL)","Reduction of NOx release vs control M1 cells (LPS+ group) [4, 9]","Anti-inflammatory activity, IL-6 release (in words) ([5]; compound at CC10, LPS 10 μg/mL)","Reduction of IL-6 release vs control M1 cells (LPS+ group) [5, 9]",Cytotoxicity against macrophages (in words) [6],"CC50 ([1]; Homo sapiens, SK-MEL-28)",SI (selectivity index) SK-MEL-28 [1],CC50 at 24 h [7],CC50 [1],CC50 [8]
"C=C1C(=O)OC2(O)C(=O)C3(C)CCC(=O)C(C)(OC(C)=O)CC(OC(C)=O)C12O3 (stereo not shown) [Compound 7c.1, 8,10-diacetoxy-4(7)-epoxy-6-hydroxy-1,5-oxo-germacr-11(13)-en-6(12)-olide]",77.3 ± 0.3%,88.7 ± 6.7%,87.0 ± 4.7%,strongly reduced,~77%,strongly reduced,~77%,less cytotoxicity against macrophages,–,–,–,–,–
CC(=O)OCC1=C2C(OC(C)=O)CC(C)(OC(C)=O)C3(O)CCC(C)(O3)C(=O)C2(O)OC1=O (stereo not shown) [Compound 7c],79.2 ± 6.4%,85.7 ± 1.6%,88.6 ± 4.8%,–,–,–,–,–,–,–,–,–,–
"C=C1C(=O)OC2C(O)C3(C)CCC(OC(C)=O)(O3)C3(C)CC(OC(C)=O)C12O3 (stereo not shown) [Compound 8, 1,8-diacetoxy-1(4),7(10)-diepoxy-5-hydroxygermacr-11(13)-en-6(12)-olide]",66.9 ± 3.5%,87.3 ± 1.6%,82.0 ± 4.7%,–,–,–,–,–,–,–,–,–,–
"C=C1C(=O)OC2C(OC(C)=O)C3(C)CCC(OC(C)=O)(O3)C3(C)CC(OC(C)=O)C12O3 (stereo not shown) [Compound 8a, 1,5,8-triacetoxy-1(4),7(10)-diepoxy-germacr-11(13)-en-6(12)-o1ide]",5.3 ± 0.3%,53.1 ± 0.0%,67.3 ± 4.0%,–,–,–,–,–,3.1 µM,3.0,9 µM,–,–
"C=C1C(=O)OC2C(O)C(C)(O)CC3C(=O)C(C)(O)CC(OC(C)=O)C132 (stereo not shown) [Compound 9, 8-acetoxy-vernomargolide]",74.5 ± 4.9%,84.9 ± 0.4%,85.2 ± 2.8%,–,–,–,–,–,–,–,–,–,–
"C=C1C(=O)OC2C(OC(C)=O)C(C)(O)CC3C(=O)C(C)(O)CC(OC(C)=O)C132 (stereo not shown) [Compound 9a, 5,8-diacetoxy-vernomargolide]",73.8 ± 3.1%,84.8 ± 0.9%,85.9 ± 5.0%,–,–,–,–,–,–,–,–,–,–
"C=C(C)C(=O)OC1CC(C)(O)C2(O)CCC(C)(/C=C3/OC(=O)C(COC(C)=O)=C31)O2 (stereo not shown) [Compound 10, piptocarphin A, reference compound]",23.1 ± 4.2%,104.8 ± 1.6%,93.2 ± 3.2%,–,–,–,–,–,6.7 µM,1.9,12.5 µM,–,–
"CC(=O)OCC1=C2/C(=C\C3(C)CCC(O)(O3)C(C)(O)CC2OC(C)=O)OC1=O (stereo not shown) [Compound 12, diacetylpiptocarphol, reference compound]",9.0 ± 0.5%,63.8 ± 6.9%,80.4 ± 3.3%,–,–,–,–,–,3.8 µM,3.3,12.6 µM,–,–
"glaucolide A [Compound 11, reference compound]",56.3 ± 1.4%,95.1 ± 4.6%,91.8 ± 3.3%,–,–,–,–,–,–,–,–,14.6 µM,20.4 µM
